This note sets out measurements from patent US20130338217A1, “ANTIBIOTIC COMPOSITION INCLUDING PHLOROTANNIN COMPOUND DERIVED FROM EISENIA BICYCLIS AS EFFECTIVE COMPONENT” (PUKYONG NATIONAL UNIVERSITY INDUSTRY-UNIVERSITY C, priority 2012, published 2013).

Holding throughout (format): cell-based, Staphylococcus aureus
In one assay the test system is MSSA (KCTC 1927). The assay can be described thus: Minimum inhibitory concentration, two-fold serial dilution, MSSA KCTC 1927. The following applies: Staphylococcus aureus. The procedure:
(§1) All the bacterial strains used for the Example were obtained from the Korean Collection of Type Cultures (KCTC; Daejeon, Korea) and the Korean Culture Center of Microorganisms (KCCM; Seoul, Korea). The bacterial strains used for the Example were methicillin-susceptible S. aureus (MSSA; KCTC 1927), two MRSA strains (KCCM 40510 and KCCM 40511). All strains were grown in Mueller-Hinton broth (MHB; Difco, Detroit, USA) or Tryptic soy broth (TSB; Difco) for minimum inhibitory concentration (MIC) assay and in Mueller-Hinton agar (MHA; Difco) for disc diffusion.
(§2) MIC means the lowest concentration of antimicrobials that will inhibit the visible growth of microorganisms after overnight incubation. MICS of the extracts and vancomycin were determined by the two-fold serial dilution method in MHB.

The test system of another assay is MSSA (KCCTC 1927). Kind of assay: Checkerboard synergy of phlorofucofuroeckol-A and β-lactams, MSSA KCTC 1927. Particulars: for MIC: Staphylococcus aureus, MSSA; for FIC index (b): β-lactam with phlorofucofuroeckol-A at 12.5 μg/ml; for FIC index (b) / FIC index (c): synergism ≦0.5, indifference >0.5 to ≦4, antagonism >4; for FIC index (c): β-lactam with phlorofucofuroeckol-A at 25 μg/ml.

For assay [1], the system named is MRSA (KCCM 40510). The assay can be described thus: Checkerboard synergy of phlorofucofuroeckol-A and β-lactams, MRSA KCCM 40510. Particulars: for MIC: Staphylococcus aureus; for FIC index (b): β-lactam with phlorofucofuroeckol-A at 12.5 μg/ml; for FIC index (b) / FIC index (c): synergism ≦0.5, indifference >0.5 to ≦4, antagonism >4; for FIC index (c): β-lactam with phlorofucofuroeckol-A at 25 μg/ml. The procedure:
(§3) The interaction between phlorofucofuroeckol-A (PFF) and β-lactams including ampicillin, penicillin and oxacillin against MRSA was tested by the checkerboard method. The synergistic effect was evaluated as a fractional inhibitory concentration (FIC) index. The FIC was calculated as the MICS of an antibiotic or phlorofucofuroeckol-A (PFF) in combination divided by the MIC of the antibiotic or PFF alone as follows.
(§4) The FIC was then summed to derive the FIC index, which indicated synergy when index values were as follows:
(§5) synergism ≦≦0.5, indifference >0.5 to ≦≦4, antagonism >4.
(§6) FICA=MICA in combination/MICA, FICB=MICB in combination/MICB

Assay [2] deals with MRSA (KCCM 40511). The assay can be described thus: Checkerboard synergy of phlorofucofuroeckol-A and β-lactams, MRSA KCCM 40511. Particulars: for MIC: Staphylococcus aureus; for FIC index (b): β-lactam with phlorofucofuroeckol-A at 12.5 μg/ml; for FIC index (b) / FIC index (c): synergism ≦0.5, indifference >0.5 to ≦4, antagonism >4; for FIC index (c): β-lactam with phlorofucofuroeckol-A at 25 μg/ml. The procedure: as §3, §4, §5, §6

In assay [3] the test system is MRSA (KCCM 40510). The assay can be described thus: Minimum inhibitory concentration, two-fold serial dilution, MRSA KCCM 40510. The following applies: Staphylococcus aureus. The procedure:
as §1, §2

Assay [4] concerns MRSA (KCCM 40511). Kind of assay: Minimum inhibitory concentration, two-fold serial dilution, MRSA KCCM 40511. Particulars: Staphylococcus aureus. As to the method: as §1, §2
[5] abbreviates: Table 5, PFF and β-lactams, mecA negative strain, read-out: MIC.
Where [6] appears, read: in combination with phlorofucofuroeckol-A at 12.5 μg/ml, read-out: MIC of β-lactam (B).
Setting [7] is: in combination with phlorofucofuroeckol-A at 25 μg/ml, read-out: MIC of β-lactam (C).
Where [8] appears, read: without phlorofucofuroeckol-A, read-out: MIC of β-lactam (A).
Setting [9] is: Table 6, isolated phlorotannins, read-out: MIC.
Setting [10] is: Table 5, PFF and β-lactams, mecA positive strain, read-out: MIC.

Values after ≈ are worked out from the molar mass of the structure shown. Read-outs that look alike come from different tables or passages of the source.

`CC1(C)S[C@@H]2[C@H](NC(=O)[C@H](N)c3ccccc3)C(=O)N2[C@H]1C(=O)O` [Ampicillin, ampicillin]: the MIC in the assay on MSSA (KCTC 1927) (setting [5]) came out at 0.063 mg/L (≈ 0.18 µM); in the assay with MSSA (KCCTC 1927) (setting [6]), 0.063 mg/L; in the assay with MSSA (KCCTC 1927) (setting [7]), 0.063 mg/L; in the assay with MSSA (KCCTC 1927) (setting [8]) it was 0.063 mg/L; with MRSA (KCCM 40510) [1] (setting [6]) it was 16 mg/L; in the assay with MRSA (KCCM 40510) [1] (setting [7]), 8 mg/L. Besides, the MIC with MRSA (KCCM 40510) [1] (setting [8]) was 512 mg/L; in the assay on MRSA (KCCM 40511) [2] (setting [6]), 2 mg/L; with MRSA (KCCM 40511) [2] (setting [7]), 1 mg/L; with MRSA (KCCM 40511) [2] (setting [8]), 512 mg/L. In addition, the “FIC index (b)” value in the assay on MSSA (KCCTC 1927) is given as 1.391; with MRSA (KCCM 40510) [1], 0.422; in the assay on MRSA (KCCM 40511) [2], 0.395. Moreover, the results for the “FIC index (c)” value in the assay with MSSA (KCCTC 1927), in the assay on MRSA (KCCM 40510) [1] and in the assay on MRSA (KCCM 40511) [2] were 1.781, 0.407 and 0.393, respectively.
Turning to `Oc1cc(O)c2oc3cc(O)c4oc5cc(O)cc(O)c5oc4c3oc2c1` [DD, dioxinodehydroeckol], the MIC in the assay with MSSA (KCTC 1927), against MRSA (KCCM 40510) [3] and against MRSA (KCCM 40511) [4] was 64 mg/L (≈ 173 µM) each time.
For `Oc1cc(O)cc(Oc2c(O)cc(O)c3c2Oc2c(O)cc(Oc4c(O)cc(Oc5c(O)cc(O)c6c5Oc5c(O)cc(O)cc5O6)cc4O)cc2O3)c1` [DE, dieckol], the values for the MIC with MSSA (KCTC 1927) (setting [9]), with MRSA (KCCM 40510) [3] (setting [9]) and with MRSA (KCCM 40511) [4] were 32 mg/L (≈ 43.1 µM), 32 mg/L (≈ 43.1 µM) and 64 mg/L (≈ 86.2 µM), respectively.
With `Oc1cc(O)cc(Oc2c(O)cc(O)c3c2Oc2c(O)cc(O)cc2O3)c1` [EK, eckol], the MIC in the assay with MSSA (KCTC 1927) (setting [9]), in the assay with MRSA (KCCM 40510) [3] (setting [9]) and in the assay with MRSA (KCCM 40511) [4] (setting [9]) was 64 mg/L (≈ 172 µM) throughout.
With `Cc1onc(-c2ccccc2)c1C(=O)N[C@@H]1C(=O)N2[C@@H]1SC(C)(C)[C@@H]2C(=O)O` [Oxacillin, oxacillin], the MIC with MSSA (KCTC 1927) (setting [5]) amounted to 0.063 mg/L (≈ 0.157 µM); in the assay with MRSA (KCCM 40510) [3] (setting [10]), 256 mg/L (≈ 638 µM); in the assay with MRSA (KCCM 40511) [4] (setting [10]), 128 mg/L (≈ 319 µM); in the assay on MSSA (KCCTC 1927) (setting [6]), 0.063 mg/L; in the assay on MSSA (KCCTC 1927) (setting [7]), 0.063 mg/L; in the assay with MSSA (KCCTC 1927) (setting [8]), 0.063 mg/L. In addition, the MIC in the assay on MRSA (KCCM 40510) [1] (setting [6]) is 8 mg/L; with MRSA (KCCM 40510) [1] (setting [7]), 4 mg/L; with MRSA (KCCM 40510) [1] (setting [8]), 256 mg/L; in the assay with MRSA (KCCM 40511) [2] (setting [6]), 1 mg/L; in the assay on MRSA (KCCM 40511) [2] (setting [7]), 0.5 mg/L; in the assay with MRSA (KCCM 40511) [2] (setting [8]), 128 mg/L. The “FIC index (b)” value in the assay with MSSA (KCCTC 1927) came to 1.391; in the assay on MRSA (KCCM 40510) [1] it was 0.422; with MRSA (KCCM 40511) [2], 0.399. Further, the results for the “FIC index (c)” value in the assay on MSSA (KCCTC 1927), with MRSA (KCCM 40510) [1] and with MRSA (KCCM 40511) [2] were 1.781, 0.407 and 0.395, respectively.

Broadly, the MIC is the lowest concentration that inhibits growth of the organism.
